# Measured values published in the supplement of paper PMC6045584.
# ± gives the standard deviation of the averaged measurements.
# Legend:
# [1] = compound: Cn1nnc2c(C(N)=O)ncn2c1=O [TEMOZOLOMIDE]; assay: surviving fraction relative to DMSO-only wells; higher = less growth inhibition; settings: exposure time: 5 days
# How it was run: (§1)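 Lines were retained only if, across three screens, replicate Pearson r was >0.7 and median Z' was >0.3. Viability was measured as CellTiter-Glo luminescence and reported as surviving fraction relative to the median of DMSO-only wells. Readings followed 10 minutes at room temperature, after log-phase tumour cells seeded at 250–500 per well in 384-well plates had been exposed, from 24 hours after seeding, continuously for five days to inhibitors at 0.5, 1, 5, 10, 50, 100, 500 and 1000 nM.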
# [2] = compound: NS(=O)(=O)OC[C@@H]1C[C@@H](n2ccc3c(N[C@H]4CCc5ccccc54)ncnc32)C[C@@H]1O [MLN-4924]; assay: as above; settings: exposure time: 5 days
# How it was run: as §1
Test System,surviving fraction ([1]; 0.5 nM),surviving fraction ([1]; 1 nM),surviving fraction ([1]; 5 nM),surviving fraction ([1]; 10 nM),surviving fraction ([1]; 50 nM),surviving fraction ([1]; 100 nM),surviving fraction ([1]; 500 nM),surviving fraction ([1]; 1000 nM),surviving fraction ([2]; 0.5 nM),surviving fraction ([2]; 1 nM),surviving fraction ([2]; 5 nM),surviving fraction ([2]; 10 nM),surviving fraction ([2]; 50 nM),surviving fraction ([2]; 100 nM),surviving fraction ([2]; 500 nM),surviving fraction ([2]; 1000 nM)
SUM149.B1*.S BREAST,1 ± 0.026,1.05 ± 0.023,1.08 ± 0.062,1.11 ± 0.038,1.07 ± 0.067,1.13 ± 0.073,1.07 ± 0.023,1.15 ± 0.085,1.13 ± 0.076,1.09 ± 0.063,1.09 ± 0.021,1.08 ± 0.031,1.002 ± 0.0051,0.675 ± 0.057,0.107 ± 0.0071,0.0892 ± 0.0075
OS25HAL BONE,1.02 ± 0.037,1.09 ± 0.031,1.06 ± 0.019,1.11 ± 0.023,1.02 ± 0.033,1.09 ± 0.03,1.07 ± 0.051,1.08 ± 0.041,1.05 ± 0.029,1.05 ± 0.017,1.11 ± 0.034,0.982 ± 0.02,0.773 ± 0.041,0.533 ± 0.06,0.181 ± 0.01,0.102 ± 0.016
MDAMB436 BREAST,0.976 ± 0.14,1.03 ± 0.15,0.997 ± 0.13,1.09 ± 0.17,0.936 ± 0.1,1.04 ± 0.14,1.03 ± 0.11,0.959 ± 0.051,0.946 ± 0.13,0.962 ± 0.082,0.961 ± 0.097,0.952 ± 0.13,0.555 ± 0.053,0.427 ± 0.037,0.272 ± 0.025,0.256 ± 0.016
LM7 BONE,0.916 ± 0.081,0.989 ± 0.086,1.04 ± 0.085,1.05 ± 0.049,1.05 ± 0.077,1.09 ± 0.022,0.968 ± 0.065,0.967 ± 0.04,0.919 ± 0.081,1.02 ± 0.026,1.09 ± 0.059,0.946 ± 0.034,0.486 ± 0.033,0.256 ± 0.026,0.1 ± 0.02,0.1 ± 0.0098
HELA CERVIX,1.04 ± 0.058,1.08 ± 0.09,1.04 ± 0.019,1.12 ± 0.078,1.07 ± 0.02,1.16 ± 0.084,1.07 ± 0.031,1.16 ± 0.072,1.12 ± 0.038,1.07 ± 0.06,1.1 ± 0.052,1 ± 0.022,1.16 ± 0.086,1.17 ± 0.1,0.718 ± 0.055,0.611 ± 0.027
93VU HEADNECK,1.02 ± 0.1,1.04 ± 0.015,1.09 ± 0.057,1.03 ± 0.14,1.11 ± 0.022,1.17 ± 0.12,1 ± 0.11,1.02 ± 0.081,1.01 ± 0.083,1.11 ± 0.068,1.09 ± 0.047,1.1 ± 0.051,0.828 ± 0.079,0.533 ± 0.034,0.166 ± 0.015,0.133 ± 0.0059
ZR751 BREAST,0.95 ± 0.12,0.953 ± 0.032,0.981 ± 0.034,0.964 ± 0.09,0.987 ± 0.15,1.04 ± 0.11,0.918 ± 0.11,1.05 ± 0.06,1.23 ± 0.056,1.08 ± 0.17,1.13 ± 0.13,1.24 ± 0.036,1.06 ± 0.13,1.03 ± 0.092,0.784 ± 0.11,0.669 ± 0.063
S68 BREAST,0.996 ± 0.22,1.07 ± 0.034,1.08 ± 0.18,1.06 ± 0.12,1.04 ± 0.044,1.09 ± 0.25,1.05 ± 0.078,1.29 ± 0.24,0.837 ± 0.21,0.964 ± 0.11,0.764 ± 0.18,1.07 ± 0.19,0.6 ± 0.074,0.326 ± 0.05,0.172 ± 0.024,0.105 ± 0.007
SCC003 HEADNECK,1.05 ± 0.077,1.04 ± 0.059,1.08 ± 0.072,1.15 ± 0.073,1.06 ± 0.034,1.1 ± 0.071,1.07 ± 0.057,1.09 ± 0.036,1.14 ± 0.039,1.1 ± 0.016,1.11 ± 0.028,1.11 ± 0.048,1.11 ± 0.14,0.988 ± 0.041,0.526 ± 0.037,0.375 ± 0.037
22RV1 PROSTATE,0.993 ± 0.017,1.09 ± 0.05,1.03 ± 0.029,1.08 ± 0.015,1.04 ± 0.057,1.13 ± 0.096,1.11 ± 0.048,1.09 ± 0.069,1.07 ± 0.05,0.967 ± 0.15,1.03 ± 0.12,0.81 ± 0.1,0.653 ± 0.048,0.47 ± 0.055,0.283 ± 0.058,0.26 ± 0.13
A549 LUNG,1.03 ± 0.0082,1.03 ± 0.04,1.03 ± 0.037,1.06 ± 0.013,1.03 ± 0.024,1.04 ± 0.032,1.04 ± 0.044,1.06 ± 0.047,1.061 ± 0.0093,1.05 ± 0.034,1.04 ± 0.023,1 ± 0.034,1.11 ± 0.041,1.1 ± 0.024,0.781 ± 0.011,0.417 ± 0.044
SG43 HEADNECK,1.11 ± 0.065,0.96 ± 0.1,0.768 ± 0.047,0.882 ± 0.087,0.742 ± 0.18,0.895 ± 0.24,0.895 ± 0.11,1.14 ± 0.46,1.15 ± 0.29,1 ± 0.32,1.02 ± 0.26,1.15 ± 0.18,0.885 ± 0.19,1.11 ± 0.15,0.463 ± 0.094,0.223 ± 0.087
JURKAT HAEMATOPOIETIC AND LYMPHOID TISSUE,1.06 ± 0.019,1.08 ± 0.024,1.05 ± 0.032,1.05 ± 0.02,1.04 ± 0.029,1.01 ± 0.029,1.02 ± 0.02,1.04 ± 0.013,1.07 ± 0.016,1.02 ± 0.032,1.01 ± 0.025,0.931 ± 0.025,0.371 ± 0.012,0.154 ± 0.0059,0.0333 ± 0.00058,0.0313 ± 0.00058
143B BONE,0.914 ± 0.096,1.0035 ± 0.00071,0.961 ± 0.047,1 ± 0.033,1.01 ± 0.013,1.02 ± 0.023,0.965 ± 0.03,1.04 ± 0.019,1.03 ± 0.023,1.01 ± 0.034,1.04 ± 0.033,1.018 ± 0.0099,0.961 ± 0.042,0.699 ± 0.028,0.062 ± 0.0042,0.033 ± 0.0028
SCC36 HEADNECK,1.04 ± 0.065,1.08 ± 0.088,1.19 ± 0.11,1.14 ± 0.069,1.07 ± 0.056,1.08 ± 0.14,1.11 ± 0.1,1.05 ± 0.078,1.06 ± 0.18,0.955 ± 0.11,1.13 ± 0.061,1.14 ± 0.09,0.544 ± 0.12,0.259 ± 0.029,0.0483 ± 0.0085,0.047 ± 0.002
SUM159 BREAST,1.01 ± 0.057,1.06 ± 0.035,1.039 ± 0.0092,1.07 ± 0.024,1.02 ± 0.021,1.05 ± 0.021,1.04 ± 0.029,1.06 ± 0.0095,1.11 ± 0.039,1.07 ± 0.043,1.08 ± 0.023,1.07 ± 0.017,1.05 ± 0.018,1.01 ± 0.012,0.75 ± 0.022,0.433 ± 0.02
HCC202 BREAST,1.08 ± 0.35,1 ± 0.13,1.07 ± 0.32,0.9 ± 0.071,1.01 ± 0.17,1.29 ± 0.14,0.975 ± 0.035,1.254 ± 0.011,1.14 ± 0.32,1.07 ± 0.26,1.24 ± 0.12,1.131 ± 0.0092,0.731 ± 0.22,0.557 ± 0.22,0.299 ± 0.066,0.265 ± 0.015
OSHN BONE,1.05 ± 0.014,1.08 ± 0.018,1.06 ± 0.018,1.13 ± 0.035,1.07 ± 0.016,1.1 ± 0.028,1.081 ± 0.0068,1.1 ± 0.018,1.09 ± 0.016,1.079 ± 0.01,1.15 ± 0.026,1.087 ± 0.0023,0.733 ± 0.018,0.565 ± 0.045,0.274 ± 0.028,0.258 ± 0.054
CADOES1 SOFT TISSUE,0.965 ± 0.14,0.979 ± 0.071,0.907 ± 0.07,0.877 ± 0.032,0.956 ± 0.068,0.937 ± 0.04,0.968 ± 0.096,0.969 ± 0.12,0.993 ± 0.094,0.97 ± 0.047,0.913 ± 0.052,0.787 ± 0.057,0.879 ± 0.057,0.812 ± 0.082,0.0993 ± 0.014,0.053 ± 0.007
SCC47 HEADNECK,0.956 ± 0.035,1.06 ± 0.074,1.1 ± 0.035,1.12 ± 0.085,1.04 ± 0.11,1.22 ± 0.14,1.1 ± 0.06,1.14 ± 0.17,1.12 ± 0.028,1.1 ± 0.11,1.06 ± 0.016,1.07 ± 0.022,0.717 ± 0.053,0.51 ± 0.05,0.307 ± 0.025,0.263 ± 0.024
BT20 BREAST,1.05 ± 0.097,1.07 ± 0.15,1.04 ± 0.085,1.13 ± 0.11,1.01 ± 0.053,1.08 ± 0.081,1.03 ± 0.053,1.15 ± 0.052,1.13 ± 0.042,1.168 ± 0.0072,1.13 ± 0.073,1.16 ± 0.1,1.2 ± 0.084,1.23 ± 0.18,0.989 ± 0.098,0.645 ± 0.044
